Data on three molecules can be found in patent publication US9550802B2, “Anti-inflammatory macrolides” (priority 2012, dated 2017).

In data set [1] the test system is CF human primary airway epithelial cells (CF hAEC). In words: Stimulation of chloride release (Cl efflux, SPQ fluorescence) in cystic fibrosis cells. It counts as cell-based. To be noted: 10 μM; CF hAEC or non-CF (S9) cells. On the procedure:
CF human primary airway epithelial cells (CF hAEC) on non-CF (S9) were cultured in the presence of compound 1 or azithromycin 10 μM. Cl efflux was monitored by fluorescence of [6-methoxy-N-(3-sulfopronyl)-quinolinium (SPQ).

Data set [2] is described as follows: Titration of macrolide with organic acid in saline. It counts as physicochemical. Particulars: for Vol. Added (mL) Score = 4: acid solution 10 mg/mL in saline added until fully dissolved; for End conc. macrolide: after titration. On the procedure:
After each addition, the mixture or solution was placed in the ultrasonic bath for 10 minutes followed by agitation for an additional 10 minutes. The mixtures were given a visual score depending on the presence of precipitate in the mixture (0 to 4, 0 being undissolved and 4 being fully-dissolved) and the pH of the supernatant fluid was measured.

Data set [3] in a line: Maximum solubility determination of organic salts in saline. To be noted: for Visual Score: score 0 to 4. The class given is physicochemical. On the procedure:
The mixtures were given a visual score depending on the presence of precipitate in the mixture (Score ranges from 0 to 4, with 0 showing undissolved solid precipiate and 4 being fully-dissolved). Solubility of the salts was tested in 10 mM, 100 mM, 500 mM and 1M.

[4] abbreviates: macrolide (not named) + acid equivalent of organic acid in saline, 100 mM.
The mark [5] stands for this setting: macrolide (not named) + acid equivalent of organic acid in saline, 500 mM.
Where [6] appears, read: macrolide (not named) + acid equivalent of organic acid in saline, 1M.

Turning to `CC[C@H]1OC(=O)[C@H](C)[C@@H](O[C@H]2C[C@@](C)(OC)[C@@H](O)[C@H](C)O2)[C@H](C)[C@@H](O[C@@H]2O[C@H](C)C[C@H](N(C)C)[C@H]2O)[C@](C)(O)C[C@@H](C)CN(C)[C@H](C)[C@@H](O)[C@]1(C)O` [azithromycin], the “Cl efflux as determined by fluorescence change (SPQ)” value in data set [1] is “stimulate Cl efflux”.

As for `O=C(O)CC(=O)C(=O)O` [oxaloacetatic acid], in data set [2] (10 mM COMPOUND 1 in saline), the “Amt acid added to dissolve” value is reported as 4.00 mg, the “Amt corr. to mol eq.” value came to 4.00 mg, the “mol. eq. acid (minimum mole equivalence of acid needed to dissolve)” value (“mol. eq. acid” below) came to 0.64 mol. eq and the “Vol. Added (mL) Score = 4” value was found to be 0.40 mL. The molecule also gave an End conc. macrolide in data set [2] (COMPOUND 1 in saline) of 9.2 mM. Also, in data set [2] (azithromycin in saline), the End conc. macrolide turned out to be 8.7 mM. For the same molecule, in data set [2] (azithromycin, 10 mM in saline), the “Amt acid added to dissolve” value is reported as 8.00 mg, the “Amt corr. to mol eq.” value came out at 8.00 mg, the “mol. eq. acid” value is recorded as 1.10 mol. eq and the “Vol. Added (mL) Score = 4” value is listed as 0.80 mL.

On to `O=C(O)CCCCCCC(=O)O` [subaric acid], for which the pH in data set [3] (macrolide (not named) + acid equivalent of organic acid in saline (0.9% aq. NaCl), 10 mM) turned out to be 6.8; in data set [3] (setting [4]), 5.5; in data set [3] (setting [5]) it was 8.0; in data set [3] (setting [6]), 10.0. The “Visual Score” value is listed as 4 in data set [3] (macrolide (not named) + acid equivalent of organic acid in saline, 10 mM); 4 in data set [3] (setting [4]); 4 in data set [3] (setting [5]); 2 in data set [3] (setting [6]). The “Amt acid added to dissolve” value in data set [2] (10 mM COMPOUND 1 in saline) was 8.30 mg; in data set [2] (azithromycin, 10 mM in saline) it was 6.70 mg. Further, the “Amt corr. to mol eq.” value in data set [2] (10 mM COMPOUND 1 in saline) is 8.30 mg; in data set [2] (azithromycin, 10 mM in saline), 6.70 mg. Moreover, the “mol. eq. acid” value in data set [2] (10 mM COMPOUND 1 in saline) is 1.05 mol. eq; in data set [2] (azithromycin, 10 mM in saline) it was 0.70 mol. eq. The End conc. macrolide in data set [2] (COMPOUND 1 in saline) and in data set [2] (azithromycin in saline) was 10.0 mM each time.
